Laboratory results from ChEMBL document CHEMBL5728687, “Diazabicyclic substituted imidazopyrimidines and their use for the treatment of breathing disorders” (2021).

Target: Potassium channel subfamily K member 9 (Homo sapiens, UniProt Q9NPC2)
Test: Inhibition of Recombinant TASK-1 and TASK-3 In Vitro: The investigations on the inhibition of the recombinant TASK-1 and TASK-3 channels were conducted using stably transfected CHO cells. The compounds according to the invention were tested in this case by application of 40 mM potassium chloride in the presence of a voltage-sensitive dye according to the method described in detail in the following references [Whiteaker et al., Validation of FLIPR membrane potential dye for high-throughput screening of potassium channel modulators, J. Biomol. Screen. 6 (5), 305-312 (2001); Molecular Devices FLIPR Application Note: Measuring membrane potential using the FLIPR® membrane potential assay kit on Fluorometric Imaging Plate Reader (FLIPR®) systems, http://www.moleculardevices.com/reagents-supplies/assay-kits/ion-channels/flipr-membrane-potential-assay-kits]. The activity of the test substances was determined as their ability to inhibit a depolarization induced in the recombinant cells by 40 mM potassium chloride. The concentration which can block half of this depolarization is referred to as IC50.
Type: cell-based

Potassium channel subfamily K member 9, sequence (Q9NPC2 whole entry): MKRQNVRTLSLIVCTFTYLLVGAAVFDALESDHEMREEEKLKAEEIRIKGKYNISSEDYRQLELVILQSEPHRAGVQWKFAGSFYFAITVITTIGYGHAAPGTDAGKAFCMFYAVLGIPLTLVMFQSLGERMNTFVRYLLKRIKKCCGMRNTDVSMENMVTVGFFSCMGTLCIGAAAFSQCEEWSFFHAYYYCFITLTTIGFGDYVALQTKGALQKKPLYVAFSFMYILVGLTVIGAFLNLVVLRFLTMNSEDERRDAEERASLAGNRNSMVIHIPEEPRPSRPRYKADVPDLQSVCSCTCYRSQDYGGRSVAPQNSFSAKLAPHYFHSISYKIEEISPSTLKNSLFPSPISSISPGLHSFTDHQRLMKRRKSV

## CNc1cccc(C(=O)N2C3CCC2CN(Cc2c(-c4ccc(Cl)cc4)nc4ncccn24)C3)n1
  IC50: 1500 nM
